Laboratory results: PubChem BioAssay AID256 (DTP/NCI, 2004)
Values joined by “and” are separate entries in the source; they are usually repeats but may differ in a detail not shown here. Equal entries are not always repeated. Toxic doses and inconclusive results are not listed.

Test system: CD2F1 mice, L1210 leukemia ip, survival T/C
Assay: NCI In Vivo Anticancer Drug Screen. Data for tumor model L1210 Leukemia (intraperitoneal) in CD2F1 (CDF1) mice
Conditions: higher = longer survival
Method in brief: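 Mice carrying a transplanted tumor received test compound or vehicle alone. The value is the measurement in the treated group divided by that in the vehicle-treated control group.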

CO[C@@]12[C@H](COC(N)=O)C3=C(C(=O)C(C)=C(N)C3=O)N1C[C@@H]1N[C@@H]12
T/C (endpoint: mean survival time, dose: 0.25 mg/kg/injection, schedule: Q01DX009 (ip), vehicle: saline): 118 % of control and 121 % of control | T/C (endpoint: mean survival time, dose: 0.38 mg/kg/injection, schedule: Q01DX009 (ip), vehicle: water): 103 % of control | T/C (endpoint: mean survival time, dose: 0.4 mg/kg/injection, schedule: Q04DX003 (ip), vehicle: water): 111 % of control | T/C (endpoint: mean survival time, dose: 0.45 mg/kg/injection, schedule: Q01DX007 (ip), vehicle: acetone): 117 % of control | T/C (endpoint: mean survival time, dose: 0.5 mg/kg/injection, schedule: Q01DX009 (ip), vehicle: water): 113 % of control | T/C (endpoint: mean survival time, dose: 0.6 mg/kg/injection, schedule: Q01DX001 (ip), vehicle: carboxymethylcellulose (CMC)): 111 % of control | T/C (endpoint: mean survival time, dose: 0.65 mg/kg/injection, schedule: Q04DX003 (ip), vehicle: water): 111 % of control | T/C (endpoint: mean survival time, dose: 0.68 mg/kg/injection, schedule: Q01DX007 (ip), vehicle: acetone): 121 % of control | T/C (endpoint: mean survival time, dose: 0.68 mg/kg/injection, schedule: Q03DX004 (ip), vehicle: acetone): 119 % of control | T/C (endpoint: mean survival time, dose: 0.75 mg/kg/injection, schedule: Q01DX005 (ip), vehicle: clinical formulation): 120 % of control | T/C (endpoint: mean survival time, dose: 0.75 mg/kg/injection, schedule: Q01DX009 (ip), vehicle: water): 104 % of control | T/C (endpoint: mean survival time, dose: 0.87 mg/kg/injection, schedule: Q01DX001 (ip), vehicle: acetone): 110 % of control | T/C (endpoint: mean survival time, dose: 1.0 mg/kg/injection, schedule: Q01DX009 (ip), vehicle: water): 115 % of control | T/C (endpoint: mean survival time, dose: 1.0 mg/kg/injection, schedule: Q04DX003 (ip), vehicle: saline): 116 % of control | T/C (endpoint: mean survival time, dose: 1.1 mg/kg/injection, schedule: Q04DX003 (ip), vehicle: water): 119 % of control | T/C (endpoint: mean survival time, dose: 1.2 mg/kg/injection, schedule: Q01DX001 (ip), vehicle: carboxymethylcellulose (CMC)): 116 % of control | T/C (endpoint: mean survival time, dose: 1.5 mg/kg/injection, schedule: Q01DX001 (ip), vehicle: saline): 105 % of control | T/C (endpoint: mean survival time, dose: 1.5 mg/kg/injection, schedule: Q01DX005 (ip), vehicle: clinical formulation): 151 % of control | T/C (endpoint: mean survival time, dose: 1.55 mg/kg/injection, schedule: Q02DX005 (ip), vehicle: saline): 119 % of control | T/C (endpoint: mean survival time, dose: 1.55 mg/kg/injection, schedule: Q03DX004 (ip), vehicle: saline): 116 % of control | T/C (endpoint: mean survival time, dose: 1.55 mg/kg/injection, schedule: Q04DX003 (ip), vehicle: saline): 114 % of control | T/C (endpoint: mean survival time, dose: 1.55 mg/kg/injection, schedule: Q08DX002 (ip), vehicle: saline): 104 % of control | T/C (endpoint: mean survival time, dose: 1.75 mg/kg/injection, schedule: Q01DX001 (ip), vehicle: carboxymethylcellulose (CMC)): 110 % of control | T/C (endpoint: mean survival time, dose: 1.75 mg/kg/injection, schedule: Q01DX001 (ip), vehicle: saline): 120 % of control | T/C (endpoint: mean survival time, dose: 2.0 mg/kg/injection, schedule: Q01DX009 (ip), vehicle: water): 107 % of control | T/C (endpoint: mean survival time, dose: 2.0 mg/kg/injection, schedule: Q04DX003 (ip), vehicle: saline): 119 % of control | T/C (endpoint: mean survival time, dose: 2.3 mg/kg/injection, schedule: Q01DX001 (ip), vehicle: acetone): 150 % of control | T/C (endpoint: mean survival time, dose: 2.3 mg/kg/injection, schedule: Q01DX001 (ip), vehicle: carboxymethylcellulose (CMC)): 118 % of control and 111 % of control | T/C (endpoint: mean survival time, dose: 2.33 mg/kg/injection, schedule: Q02DX005 (ip), vehicle: saline): 119 % of control | T/C (endpoint: mean survival time, dose: 2.33 mg/kg/injection, schedule: Q03DX004 (ip), vehicle: saline): 123 % of control | T/C (endpoint: mean survival time, dose: 2.33 mg/kg/injection, schedule: Q04DX003 (ip), vehicle: saline): 121 % of control | T/C (endpoint: mean survival time, dose: 2.33 mg/kg/injection, schedule: Q08DX002 (ip), vehicle: saline): 111 % of control | T/C (endpoint: mean survival time, dose: 2.9 mg/kg/injection, schedule: Q01DX001 (ip), vehicle: saline): 124 % of control | T/C (endpoint: mean survival time, dose: 3.0 mg/kg/injection, schedule: Q01DX001 (ip), vehicle: saline): 124 % of control | T/C (endpoint: mean survival time, dose: 3.0 mg/kg/injection, schedule: Q01DX005 (ip), vehicle: clinical formulation): 113 % of control and 98 % of control | T/C (endpoint: mean survival time, dose: 3.0 mg/kg/injection, schedule: Q01DX009 (ip), vehicle: water): 101 % of control and 108 % of control | T/C (endpoint: mean survival time, dose: 3.0 mg/kg/injection, schedule: Q04DX003 (ip), vehicle: saline): 170 % of control | T/C (endpoint: mean survival time, dose: 3.5 mg/kg/injection, schedule: Q01DX001 (ip), vehicle: acetone): 156 % of control | T/C (endpoint: mean survival time, dose: 3.5 mg/kg/injection, schedule: Q01DX001 (ip), vehicle: carboxymethylcellulose (CMC)): 155 % of control | T/C (endpoint: mean survival time, dose: 3.5 mg/kg/injection, schedule: Q04DX003 (ip), vehicle: saline): 123 % of control | T/C (endpoint: mean survival time, dose: 3.5 mg/kg/injection, schedule: Q08DX002 (ip), vehicle: saline): 121 % of control | T/C (endpoint: mean survival time, dose: 4.5 mg/kg/injection, schedule: Q01DX001 (ip), vehicle: saline): 108 % of control | T/C (endpoint: mean survival time, dose: 4.7 mg/kg/injection, schedule: Q01DX001 (ip), vehicle: saline): 122 % of control | T/C (endpoint: mean survival time, dose: 5.0 mg/kg/injection, schedule: Q04DX003 (ip), vehicle: water): 150 % of control | T/C (endpoint: mean survival time, dose: 5.25 mg/kg/injection, schedule: Q01DX001 (ip), vehicle: carboxymethylcellulose (CMC)): 176 % of control | T/C (endpoint: mean survival time, dose: 5.25 mg/kg/injection, schedule: Q01DX004 (ip), vehicle: saline): 152 % of control | T/C (endpoint: mean survival time, dose: 5.25 mg/kg/injection, schedule: Q01DX005 (ip), vehicle: saline): 165 % of control | T/C (endpoint: mean survival time, dose: 7.0 mg/kg/injection, schedule: Q01DX003 (ip), vehicle: saline): 150 % of control | T/C (endpoint: mean survival time, dose: 7.0 mg/kg/injection, schedule: Q04DX003 (ip), vehicle: saline): 152 % of control | T/C (endpoint: mean survival time, dose: 8.3 mg/kg/injection, schedule: Q04DX003 (ip), vehicle: water): 119 % of control | T/C (endpoint: mean survival time, dose: 10.5 mg/kg/injection, schedule: Q01DX001 (ip), vehicle: carboxymethylcellulose (CMC)): 114 % of control | T/C (endpoint: mean survival time, dose: 12.0 mg/kg/injection, schedule: Q01DX001 (ip), vehicle: saline): 112 % of control | T/C (endpoint: median survival time, dose: 0.1 mg/kg/injection, schedule: Q01DX009 (ip), vehicle: saline): 192 % of control | T/C (endpoint: median survival time, dose: 0.1 mg/kg/injection, schedule: Q04DX003 (ip), vehicle: saline): 108 % of control | T/C (endpoint: median survival time, dose: 0.12 mg/kg/injection, schedule: Q01DX009 (ip), vehicle: Klucel (hydroxypropylcellulose) (HPC)): 102 % of control | T/C (endpoint: median survival time, dose: 0.2 mg/kg/injection, schedule: Q01DX009 (ip), vehicle: saline): 113 % of control | T/C (endpoint: median survival time, dose: 0.2 mg/kg/injection, schedule: Q04DX003 (ip), vehicle: saline): 107 % of control | T/C (endpoint: median survival time, dose: 0.25 mg/kg/injection, schedule: Q01DX009 (ip), vehicle: Klucel (hydroxypropylcellulose) (HPC)): 102 % of control | T/C (endpoint: median survival time, dose: 0.25 mg/kg/injection, schedule: Q01DX009 (ip), vehicle: saline): 109 % of control | T/C (endpoint: median survival time, dose: 0.25 mg/kg/injection, schedule: Q01DX009 (ip), vehicle: water): 115 % of control | T/C (endpoint: median survival time, dose: 0.4 mg/kg/injection, schedule: Q01DX001 (ip), vehicle: saline): 113 % of control | T/C (endpoint: median survival time, dose: 0.4 mg/kg/injection, schedule: Q01DX009 (ip), vehicle: saline): 124 % of control | T/C (endpoint: median survival time, dose: 0.4 mg/kg/injection, schedule: Q04DX003 (ip), vehicle: saline): 109 % of control | T/C (endpoint: median survival time, dose: 0.5 mg/kg/injection, schedule: Q01DX009 (ip), vehicle: Klucel (hydroxypropylcellulose) (HPC)): 104 % of control | T/C (endpoint: median survival time, dose: 0.5 mg/kg/injection, schedule: Q01DX009 (ip), vehicle: saline): 118 % of control | T/C (endpoint: median survival time, dose: 0.75 mg/kg/injection, schedule: Q01DX001 (ip), vehicle: saline): 115 % of control | T/C (endpoint: median survival time, dose: 0.8 mg/kg/injection, schedule: Q01DX001 (ip), vehicle: saline): 112 % of control | T/C (endpoint: median survival time, dose: 0.8 mg/kg/injection, schedule: Q04DX003 (ip), vehicle: saline): 124 % of control | T/C (endpoint: median survival time, dose: 1.0 mg/kg/injection, schedule: Q01DX009 (ip), vehicle: Klucel (hydroxypropylcellulose) (HPC)): 116 % of control | T/C (endpoint: median survival time, dose: 1.6 mg/kg/injection, schedule: Q01DX009 (ip), vehicle: saline): 165 % of control | T/C (endpoint: median survival time, dose: 1.8 mg/kg/injection, schedule: Q01DX001 (ip), vehicle: water): 116 % of control and 102 % of control and 105 % of control | T/C (endpoint: median survival time, dose: 2.4 mg/kg/injection, schedule: Q03DX003 (ip), vehicle: saline): 118 % of control and 203 % of control | T/C (endpoint: median survival time, dose: 3.2 mg/kg/injection, schedule: Q01DX009 (ip), vehicle: saline): 96 % of control | T/C (endpoint: median survival time, dose: 3.2 mg/kg/injection, schedule: Q04DX003 (ip), vehicle: saline): 168 % of control | T/C (endpoint: median survival time, dose: 3.6 mg/kg/injection, schedule: Q01DX001 (ip), vehicle: saline): 155 % of control and 160 % of control | T/C (endpoint: median survival time, dose: 4.0 mg/kg/injection, schedule: Q01DX009 (ip), vehicle: saline): 97 % of control | T/C (endpoint: median survival time, dose: 4.8 mg/kg/injection, schedule: Q01DX001 (ip), vehicle: saline): 166 % of control | T/C (endpoint: median survival time, dose: 4.8 mg/kg/injection, schedule: Q03DX003 (ip), vehicle: saline): 190 % of control | T/C (endpoint: median survival time, dose: 5.0 mg/kg/injection, schedule: Q01DX001 (ip), vehicle: water): 113 % of control and 115 % of control | T/C (endpoint: median survival time, dose: 5.4 mg/kg/injection, schedule: Q01DX001 (ip), vehicle: saline): 166 % of control | T/C (endpoint: median survival time, dose: 6.0 mg/kg/injection, schedule: Q01DX009 (ip), vehicle: clinical formulation): 98 % of control | T/C (endpoint: median survival time, dose: 6.4 mg/kg/injection, schedule: Q01DX001 (ip), vehicle: saline): 156 % of control | T/C (endpoint: median survival time, dose: 8.0 mg/kg/injection, schedule: Q01DX001 (ip), vehicle: saline): 156 % of control and 172 % of control | T/C (endpoint: median survival time, dose: 8.3 mg/kg/injection, schedule: Q01DX001 (ip), vehicle: water): 123 % of control
